Common to all, as to assay: inhibition of tumour cell growth, NCI panel, 48 h
Assay [1] concerns CAKI-1 renal.
In assay [2] the test system is SN12C renal.
The test system of assay [3] is MDA-MB-231 breast.
Assay [4] relates to SK-OV-3 ovarian.
For assay [5], the system named is SR leukemia.
Assay [6] has as its system MDA-MB-435.
Assay [7] relates to HCT-116 colon.
Assay [8] has as its system IGROV1 ovarian.
Assay [9] concerns HS 578T breast.
Assay [10] deals with OVCAR-5 ovarian.
Assay [11] relates to BT-549 breast.

The record followed here is PubChem BioAssay (NCI).

Structures are written as SMILES.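 Results reflect a 48-hour exposure of cells in 96-well plates to compound at five concentrations. GI50 marks 50% less growth. The concentration for full growth arrest is given as TGI.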

As to `CCN(CC)CCNc1ccc2ncn3c4ccc(O)cc4c(=O)c1c23`, the TGI in [1] amounted to 2.08 µM; in assay [2], 15.1 µM; in assay [3], 14.1 µM; in assay [4], 18.2 µM; in assay [5], 2.27 µM; in assay [6] it was 18.4 µM. The TGI in assay [7] is 13 µM; in [8] it was 14.3 µM; in assay [9], 21 µM; in [10] it was 17.4 µM; in [11], 24.9 µM.

Take `CSCCC(C(=O)O)N(C)C` (configuration not stated): the TGI in assay [1], in [2], in assay [3], in assay [4], in assay [5] and in assay [6] was over 100 µM throughout. Further, the TGI in assay [7], in [8], in [9], in [10] and in [11] was over 100 µM each time.

With `C=C(C#N)C(=O)OCC(CC)CC.C=C(C#N)C(=O)OCC(CC)CC.CS(C)=O.CS(C)=O.Nc1c(N=Nc2ccc(-c3ccc(N=Nc4cc(S(=O)(=O)[O-])c5ccccc5c4N)cc3)cc2)cc(S(=O)(=O)[O-])c2ccccc12.[Pt+2]`, the GI50 was 20.4 µM in [1]; 57.7 µM in assay [2]; 97.9 µM in [4]; over 65.2 µM in assay [7]; 29.4 µM in assay [8]; over 78.4 µM in [10]. Further, the TGI in [1] is 53.7 µM; in assay [2], over 100 µM; in [4], over 100 µM; in assay [7] it was over 100 µM; in assay [8] it was over 100 µM; in assay [10], over 100 µM.

As for `O=C1c2cc(O)c(O)cc2O[C@H](c2ccc(O)c(O)c2)[C@H]1O`, the TGI in assay [1], in assay [2], in [3], in assay [4], in assay [5] and in assay [6] was over 100 µM throughout. Besides, the TGI in assay [7], in assay [8], in [9], in assay [10] and in [11] was over 100 µM throughout.

Take `CN1C(=O)CC(=O)N1/C(=C/c1ccccc1)c1ccccc1`: the TGI is 62.5 µM in [1]; over 100 µM in assay [2]; 79.4 µM in [3]; over 100 µM in assay [4]; over 100 µM in assay [5]; over 100 µM in [6]. In addition, the TGI is over 100 µM in [7]; 42.2 µM in [8]; 88.1 µM in assay [9]; over 100 µM in assay [10]; over 100 µM in assay [11].

Regarding `O=C1c2cc3c(cc2-c2c1c1ccc(Cl)cc1c(=O)n2C[C@H](O)CO)OCO3`, the GI50 was under 0.01 µM in assay [1]; 0.32 µM in assay [3]; 0.0444 µM in [4]; under 0.01 µM in assay [5]; 0.0691 µM in assay [6]; 0.135 µM in assay [8]. Moreover, the GI50 in assay [10] is 0.119 µM. Also, the TGI in assay [1] is 0.192 µM; in assay [3], 1.97 µM; in assay [4], 1.66 µM; in [5], 12.7 µM; in assay [6], 0.271 µM; in assay [8], over 100 µM. In assay [10], this compound yielded a TGI of 1.15 µM.

Consider `O=c1[nH]c2[nH]c(=S)[nH]c(=S)c2[nH]1`, for which the TGI in assay [1], in [2], in assay [3], in assay [5], in assay [6] and in [7] was over 100 µM each time. The TGI in [8], in assay [9], in [10] and in assay [11] was over 100 µM throughout.

As to `C=CCNC(=O)C(C)C1CCC2(C)C=CC(=O)C(C)=C2C1O` (configuration not stated), the TGI in assay [1], in assay [2], in [4], in assay [7], in [8] and in assay [10] was over 100 µM each time.

Take `COc1ccc2nc3cc(Cl)ccc3c(NC(C)CCCN(CCCl)CCCl)c2c1` (configuration not stated): the TGI in [1] came out at 13.9 µM; in assay [2], 8.66 µM; in [4], 6.59 µM; in assay [5] it was 0.502 µM; in assay [7], 1.5 µM; in [8], 7.11 µM. For the same compound, in [10], the TGI is 8 µM.

Regarding `Oc1ccc(C(=C(Br)c2ccccc2)c2ccc(O)cc2)cc1`, the TGI came to 30.8 µM in assay [1]; 18.9 µM in assay [2]; 24 µM in assay [3]; 16.9 µM in assay [4]; 3.45 µM in assay [6]; 15.9 µM in assay [7]. Besides, the TGI was determined as 19.9 µM in [8], 22 µM in assay [9], 31.2 µM in [10] and 15.4 µM in assay [11].

On to `O=C1c2ccccc2C(=O)c2[nH]cnc21`, for which the TGI in [1], in [2], in assay [5] and in assay [7] was over 100 µM each time.

`O=C1C(Cl)N(c2ccccc2Cl)C1c1c[nH]c2ccccc12` (configuration not stated): the TGI in assay [2], in assay [4], in assay [5], in [7] and in [8] was over 100 µM throughout.
